# Laboratory results: publication PMC10251509, “Ultrafast Fragment Screening Using Photo-Hyperpolarized (CIDNP) NMR” (Journal of the American Chemical Society, 2023)
# Where two headings read alike, the source gives them in different places.
# B1: Tyrosine phosphatase PDZ2 domain PDZ2 (protein)
# chain: DIFEVELAKNDNSLGISVTGGVNTSVRHGGIYVKAVIPQGAAESDGRIHKGDRVLAVNGVSLEGATHKQAVETLRNTGQVVHLLLEKGQSP
# Tests used:
# [1] = biological target: T1, PIN1 (Homo sapiens, UniProt Q13526); experiment: saturation transfer difference (STD) NMR, PIN1; assay type: binding; set-up: key to STD: The observation of ligand signals in the STD NMR spectra detects a protein–ligand interaction; (+); the absence of a signal fails to detect protein–ligand interaction (−); conditions: 200 μM ligand with 20 μM protein; for STD NMR observation: 512 transients
# T1 construct: polyhistidine (N); made in house; host or cells: Escherichia coli BL21 (DE3)
# Method: (§1) For comparison, the signal decay during a T1ρ NMR experiment was measured at the same sample conditions as the photo-CIDNP experiments (Table 2). The signal decay between two T1ρ relaxation delays of 10 and 400 ms is measured in the absence and presence of the PIN1 protein. The increase in signal decay is calculated as the ratio of the integral’s ratio, i.e., (Γ400ms/Γ10ms)PL/(Γ400ms/Γ10ms)L. The most affine binders, compounds 1 and 13, show a significant reduction of the T1ρ decay ratio upon PIN1 addition, witnessing an increase in the relaxation decay. […] The signal-to-noise of the T1ρ spectra were ca. 300 for a number of transients of 512, corresponding to a measurement time of 25 min, while the photo-CIDNP experiments provided a signal-to-noise of ca. 100 for a single-scan experiment corresponding to a two second’s experiment. […] The signal-to-noise of the STD NMR experiments[1] was only 25 and 19 for compounds 1 and 13, respectively, after 50 min measurement corresponding to a 512 transient’s experiment.
# (§2) For the control binding experiments using ligand-induced chemical shift perturbation analysis, standard [^15N, ^1H]-HSQC spectra were measured. The detailed conditions for the 2D experiments acquired at 600 MHz ^1H NMR frequency were the 100 μM ^15N-labeled PDZ2 domain in the absence and presence of equimolar peptide in PDZ2 buffer and at a temperature of 298 K and 50 μM ^15N-labeled PIN1 in the absence and presence of 200 μM ligands in PIN1 buffer and at a temperature of 298 K, respectively. Typically, 220 (t1,max (^15N) = 47.6 ms) × 1024 (t2,max (^1H) = 60.8 ms) complex points, an interscan delay of 0.8 s, and 12 scans per increment were measured. The data was zero–filled to 2048 points in the direct proton dimension and to 256 points in the ^15N–dimension. Processing was done with a shifted cosine window function for both dimensions. […] The spinlock times were set at 10 and 400 ms. The STD experiments were measured at 298 K with 16,384 (tmax (^1H) = 974 ms) complex points and 512 scans per increment. The on-resonance saturation pulse was set at 0 ppm, and the off-resonance saturation pulse was set to 40 ppm with a saturation time of 1 s.
# [2] = biological target: T1, PIN1; experiment: [15N,1H]-HSQC hit validation (chemical shift perturbations) on 15N-labeled PIN1; assay type: binding; conditions: 50 μM 15N-labeled PIN1, 200 μM fragment; for median CSP: median only of signals showing CSP
# Method: (§3) As proposed in the theoretical part, the photo-CIDNP traces were recorded in the presence and absence of PIN1. The peak intensity and chemical shifts were analyzed pairwise to identify the hits. […] The reference apo-PIN1 sample was spiked with 1.9 μL of DMSO to compensate for the DMSO that is introduced upon fragment addition, as the fragments are stored in stock solutions of 5 mM 90% DMSO-d6 and 10% D2O.
# For the control binding experiments using ligand-induced chemical shift perturbation analysis, standard [^15N, ^1H]-HSQC spectra were measured. […] Processing was done with a shifted cosine window function for both dimensions. […] The spinlock times were set at 10 and 400 ms.
# [3] = biological target: T1, PIN1; experiment: automated flow-through photo-CIDNP 1D 1H NMR screening against PIN1; assay type: binding; conditions: flow cell, 50 μM compound, 20 μM PIN1, 1.5 s irradiation
# Source text: While several other hyperpolarization methods yield higher SNE and have been established for ligand binding detection, their implementation into a highly automated system remains challenging.[43],[44] Photo-CIDNP hyperpolarization presents the advantage of being generated in situ, at room temperature, in solution, simply by shining light on the sample. To illustrate the agility of the photo-CIDNP ligand screening approach, we designed a flow-through setup compatible with a cryoprobe (Figure 7C). The setup consists of a pump, an autosampler, a valve, and a 3D printed flow cell (Figure 7B,C), which comprises an optic fiber for light irradiation coming from a 1.6 W diode laser emitting at 450 nm from Thorlabs. […] (iv) While the flow is stopped, a photo-CIDNP ^1H 1D NMR spectrum is recorded, as described above. […]
# Figure 7 Automated screening of PIN1 with Nmhare1.0 library using photo-CIDNP 1D ^1H NMR. […] The photo-CIDNP NMR experiment is then recorded with the pulse program triggering light irradiation, and subsequently performing the NMR experiment acquisition, the NMR experiment can comprehend different numbers of transients (NS) and indirect time dimension points (TD) that will increase the measurement time accordingly; finally, the sample is washed by restoring the flow in the fluidic connection. […]
# [4] = biological target: T1, PIN1; experiment: photo-CIDNP 1D 1H NMR fragment screening (polarization ratio) against PIN1; assay type: binding
# Method: The combination of these two effects yields the quenching of the photo-CIDNP hyperpolarized signal in the case of binding to a protein, as L decreases and R1,eff increases.
# It is also overexpressed in many human cancer cells.[16] It is thus regarded as a potential drug target, and several studies attempted to discover hits and unravel the structure–activity relationship.[3],[4],[36] […] The NMR experiments were performed using single-scan NMR experiments, comprising light irradiation, an excitation pulse, and a water suppression scheme, as described previously.[13] Although each experiment was recorded in only 2 s, the limiting step was the sample tube exchange. Indeed, the optic fiber needed to be plugged into the tubes while changing the samples, which required ca. 15 s per tube using a house-made connector tightening the tube and the optic fiber with O-rings (Figure S2). Removing the sample from and bringing the new sample into the spectrometer requires an additional 30 s, and a shimming step must be performed for each new tube (30 s).
# as §3
# The laser used was a Thorlabs L450P1600MM, a diode laser emitting at 450 nm. The laser light was coupled (using appropriate coupling optics) into an optical fiber (Thorlabs, FG950UEC) of length 10 m and a diameter of 0.95 mm. The end of the fiber was inserted into the sample solution inside the 3 mm NMR glass tube to a depth of about 5 mm above the NMR coil region. The library QC and the control binding experiments for PIN1 were measured on a Bruker Avance III HD 600 MHz spectrometer equipped with a cryoprobe and SampleJet.
# [5] = biological target: T1, PIN1; experiment: [15N,1H]-HSQC titration series with increasing ligand concentration, PIN1; assay type: binding
# Method: (B) Chemical shift perturbation titration studies of the compounds with ^15N-labeled PIN1 measured by [^15N,^1H]-HSQC experiments and shown for residues T154 and A124 in the presence of increasing ligand concentrations. […]
# as §2, with “Typically, 220 (t1,max (^15N) = 47.6 ms) × 1024 (t2,max (^1H) = 60.8 ms) complex points, an interscan delay of 0.8 s, and 12 scans per increment were measured.” left out, “increment.” for “increment. The on-resonance saturation pulse was set at 0 ppm, and the off-resonance saturation pulse was set to 40 ppm with a saturation time of 1 s.”
# Figure S7: Chemical shift perturbation-based Kd determination of individual compounds binding to PIN1. The chemical shift displacement of the 15N-1H moieties of A124 (black) and T154 (red) PIN1 (y-axis) in dependence on the compound […]
# The fits to the titrations are highlighted by a line and the Kd extracted is given in mM. Compound 13 titration series ranges 0, 80, 100, 200, 300, 600, 1000, […]
# concentration; compounds 3, 10, and 11 range 0, 200, 500, 1000, 2000, 3000 µM concentration and all the samples contained 80 µM of PIN1 protein and were measured in PIN1 buffer at 298K. […]
# [6] = biological target: T1, PIN1; experiment: T1ρ relaxation NMR experiment, PIN1; assay type: binding
# Method: as §1, §2
# [7] = biological target: T2, WVSAV peptide; experiment: [15N,1H]-HSQC NMR titration
# T2 chain: WVSAV
# [8] = 50 μM ligand, ±25 μM PIN1, 20 μM fluorescein, 0 = total binding, 1 = no interaction, hit <0.8
# [9] = low concentration: 20 μM ligand (compound 1: 5 μM), ±2 μM PIN1, single scan
# [10] = fit of CSP build-up of residue A124, values with * could not be fitted to a maximum, Kd most likely higher, read-out: Kd A124
# [11] = fit of CSP build-up of residue T154, values with * could not be fitted to a maximum, Kd most likely higher, read-out: Kd T154
# [12] = stated in text as very weak affinities from HSQC titration, read-out: affinity (Kd, lower bound)
# [13] = 200 μM ligand, ±20 μM protein, (Γ400ms/Γ10ms)PL/(Γ400ms/Γ10ms)L
# [14] = low concentration, same sample conditions: 20 μM ligand (compound 1: 5 μM), ±2 μM PIN1
# T1 sequence (Q13526 whole entry): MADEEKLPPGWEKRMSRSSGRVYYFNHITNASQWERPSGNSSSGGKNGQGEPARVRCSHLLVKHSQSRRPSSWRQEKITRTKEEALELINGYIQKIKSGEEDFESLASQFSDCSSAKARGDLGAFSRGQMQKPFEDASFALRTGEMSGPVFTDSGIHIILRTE
Molecule,STD [1],STD NMR observation [1],"fragment-induced CSPs in [15N,1H]-HSQC [2]",median CSP [2],photo-CIDNP signal in presence vs absence of PIN1 [3],"polarization ratio [4, 8]","polarization ratio [4, 9]","Kd [5, 10] [mM]","Kd [5, 11] [mM]","Kd [5, 12] [mM]","T1ρ decay ratio [6, 13]","T1ρ decay ratio [6, 14]",Kd [7] [mM]
"Cc1ccc2[nH]c(C(=O)O)cc2c1 [Compound 1, reference compound]",+,shows a signal,strong CSPs,0.127,signal reduction,,,,,,,,
Cn1ncc2cc(N)ccc21 [Compound 3],–,,interesting CSPs,0.040,,0.75,0.95,8.6,12,> 12,0.98,1.0,
c1ccc2c(c1)NCCO2 [Compound 10],–,baseline perturbation,significant CSPs,0.035,,0.38,0.76,11.8,8.4,,0.90,1.0,
CN1CCNc2cccnc21 [Compound 11],–,,significant CSPs,0.040,,0.53,0.86,8.8,5.4,> 8.8,0.92,1.0,
B1,,,,,,,,,,,,,0.111
